Test results published in paper PMC10882719 (Frontiers in Neuroscience, 2024).
Like-named read-outs stand apart in the source and are kept apart here.

Columns and labels:
Format in all cases: cell-based
168 GPCRs [1] = molecular target: T1, 168 GPCRs (Homo sapiens, UniProt Q9P296)
T1 construct: host or cells: PathHunter cell lines

168 GPCRs [2] = molecular target: T2, 168 GPCRs (Homo sapiens, UniProt Q9Y5N1)
T2 construct: host or cells: PathHunter cell lines

168 GPCRs [3] = molecular target: T3, 168 GPCRs (Homo sapiens, UniProt P08172)
T3 construct: host or cells: PathHunter cell lines
T3 sequence (P08172 1-466): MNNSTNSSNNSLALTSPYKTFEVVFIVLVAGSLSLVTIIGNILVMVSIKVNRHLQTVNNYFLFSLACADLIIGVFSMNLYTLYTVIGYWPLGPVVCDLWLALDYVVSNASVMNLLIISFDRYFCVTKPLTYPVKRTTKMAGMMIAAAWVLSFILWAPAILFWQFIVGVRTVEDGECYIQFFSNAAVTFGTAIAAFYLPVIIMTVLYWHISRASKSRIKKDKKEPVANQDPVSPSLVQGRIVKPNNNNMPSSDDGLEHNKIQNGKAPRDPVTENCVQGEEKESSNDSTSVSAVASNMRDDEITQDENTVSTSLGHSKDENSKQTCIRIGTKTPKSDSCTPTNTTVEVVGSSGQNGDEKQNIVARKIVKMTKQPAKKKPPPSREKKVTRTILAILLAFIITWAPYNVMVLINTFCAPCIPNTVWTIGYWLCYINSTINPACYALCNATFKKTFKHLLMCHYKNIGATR

168 GPCRs [4] = molecular target: T4, 168 GPCRs (Homo sapiens, UniProt P32238); settings: CCKAR
T4 construct: host or cells: PathHunter cell lines
T4 sequence (P32238 1-428): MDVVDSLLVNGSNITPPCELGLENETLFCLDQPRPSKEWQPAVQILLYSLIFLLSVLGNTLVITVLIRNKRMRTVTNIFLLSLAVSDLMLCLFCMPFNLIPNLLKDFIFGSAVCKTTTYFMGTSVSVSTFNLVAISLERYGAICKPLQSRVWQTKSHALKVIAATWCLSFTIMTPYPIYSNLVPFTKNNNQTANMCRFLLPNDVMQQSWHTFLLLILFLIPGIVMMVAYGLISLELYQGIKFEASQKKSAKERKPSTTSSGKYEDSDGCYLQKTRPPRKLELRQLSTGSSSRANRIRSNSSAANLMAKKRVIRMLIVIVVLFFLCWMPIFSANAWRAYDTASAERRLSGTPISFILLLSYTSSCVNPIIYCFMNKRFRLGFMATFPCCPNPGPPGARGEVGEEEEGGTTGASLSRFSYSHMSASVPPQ

168 GPCRs [5] = molecular target: T5, 168 GPCRs (Homo sapiens, UniProt P47211)
T5 construct: host or cells: PathHunter cell lines
T5 sequence (P47211 1-349): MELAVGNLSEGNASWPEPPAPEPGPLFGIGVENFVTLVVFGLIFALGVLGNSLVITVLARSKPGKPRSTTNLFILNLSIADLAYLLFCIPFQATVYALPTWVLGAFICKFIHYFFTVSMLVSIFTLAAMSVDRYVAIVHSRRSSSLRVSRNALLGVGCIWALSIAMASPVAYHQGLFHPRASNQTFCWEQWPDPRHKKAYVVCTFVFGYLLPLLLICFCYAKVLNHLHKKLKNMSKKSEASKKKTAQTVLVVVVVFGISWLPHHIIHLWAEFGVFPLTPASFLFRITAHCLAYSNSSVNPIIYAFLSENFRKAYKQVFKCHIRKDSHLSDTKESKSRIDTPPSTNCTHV

168 GPCRs [6] = molecular target: T6, 168 GPCRs (Homo sapiens, UniProt P47871); settings: GCGR
T6 construct: host or cells: PathHunter cell lines
T6 sequence (P47871 26-477): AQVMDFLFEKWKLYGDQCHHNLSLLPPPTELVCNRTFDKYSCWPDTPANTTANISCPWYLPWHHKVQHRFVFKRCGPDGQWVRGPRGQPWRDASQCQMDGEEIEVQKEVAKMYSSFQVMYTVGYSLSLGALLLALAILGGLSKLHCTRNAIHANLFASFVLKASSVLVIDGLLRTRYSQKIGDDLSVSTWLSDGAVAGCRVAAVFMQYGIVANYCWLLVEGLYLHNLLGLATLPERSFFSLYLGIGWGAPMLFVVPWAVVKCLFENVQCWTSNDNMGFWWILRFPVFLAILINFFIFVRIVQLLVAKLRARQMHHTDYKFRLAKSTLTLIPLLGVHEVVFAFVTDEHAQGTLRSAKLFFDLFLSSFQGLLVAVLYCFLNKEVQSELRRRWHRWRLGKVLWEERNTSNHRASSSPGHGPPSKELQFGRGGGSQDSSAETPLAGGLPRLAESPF

168 GPCRs [7] = molecular target: T7, 168 GPCRs (Homo sapiens, UniProt P41231); settings: P2RY2
T7 construct: host or cells: PathHunter cell lines
T7 sequence (P41231 whole entry): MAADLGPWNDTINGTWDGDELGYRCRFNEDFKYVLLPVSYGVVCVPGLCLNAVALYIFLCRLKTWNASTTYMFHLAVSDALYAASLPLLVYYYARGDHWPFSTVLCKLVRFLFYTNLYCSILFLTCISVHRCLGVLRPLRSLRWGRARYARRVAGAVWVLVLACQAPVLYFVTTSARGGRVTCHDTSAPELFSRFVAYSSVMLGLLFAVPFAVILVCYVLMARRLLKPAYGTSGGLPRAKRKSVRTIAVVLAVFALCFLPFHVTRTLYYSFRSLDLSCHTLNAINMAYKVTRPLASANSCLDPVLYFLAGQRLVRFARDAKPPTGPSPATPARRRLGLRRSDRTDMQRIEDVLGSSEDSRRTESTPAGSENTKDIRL

168 GPCRs [8] = molecular target: T8, 168 GPCRs (Homo sapiens, UniProt P49682)
T8 construct: host or cells: PathHunter cell lines
T8 sequence (P49682 1-368): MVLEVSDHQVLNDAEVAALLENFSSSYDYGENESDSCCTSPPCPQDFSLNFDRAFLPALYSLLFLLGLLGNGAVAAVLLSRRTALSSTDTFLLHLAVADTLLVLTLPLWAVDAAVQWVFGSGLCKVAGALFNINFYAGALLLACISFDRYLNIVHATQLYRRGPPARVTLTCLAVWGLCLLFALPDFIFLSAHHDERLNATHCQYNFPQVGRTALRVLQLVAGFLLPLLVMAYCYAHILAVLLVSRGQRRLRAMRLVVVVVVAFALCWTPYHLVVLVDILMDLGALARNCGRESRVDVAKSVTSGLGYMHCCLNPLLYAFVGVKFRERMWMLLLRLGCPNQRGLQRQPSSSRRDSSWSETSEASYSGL

T1 sequence (Q9P296 whole entry): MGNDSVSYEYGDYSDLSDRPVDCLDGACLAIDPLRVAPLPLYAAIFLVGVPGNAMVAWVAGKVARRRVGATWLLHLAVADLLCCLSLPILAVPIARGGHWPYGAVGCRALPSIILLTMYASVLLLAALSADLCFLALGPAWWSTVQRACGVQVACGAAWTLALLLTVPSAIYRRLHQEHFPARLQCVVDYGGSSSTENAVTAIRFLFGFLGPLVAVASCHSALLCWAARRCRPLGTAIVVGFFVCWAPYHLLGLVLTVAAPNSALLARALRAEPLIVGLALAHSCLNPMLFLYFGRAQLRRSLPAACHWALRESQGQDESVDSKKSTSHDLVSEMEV
T2 sequence (Q9Y5N1 whole entry): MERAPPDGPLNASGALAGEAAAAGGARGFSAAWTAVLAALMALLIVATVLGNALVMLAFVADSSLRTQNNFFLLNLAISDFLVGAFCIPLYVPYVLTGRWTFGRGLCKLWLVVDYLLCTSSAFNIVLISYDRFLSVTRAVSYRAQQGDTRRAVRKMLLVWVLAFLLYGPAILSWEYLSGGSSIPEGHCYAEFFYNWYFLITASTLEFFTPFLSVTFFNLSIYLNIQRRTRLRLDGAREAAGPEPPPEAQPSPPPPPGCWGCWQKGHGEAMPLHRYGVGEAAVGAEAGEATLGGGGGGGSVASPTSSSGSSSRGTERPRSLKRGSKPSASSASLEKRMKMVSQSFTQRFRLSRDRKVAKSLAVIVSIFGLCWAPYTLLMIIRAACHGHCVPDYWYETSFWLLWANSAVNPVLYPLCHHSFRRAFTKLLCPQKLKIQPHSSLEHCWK

Compound	% Agonist Activity (168 GPCRs [1]; C5L2, 1 uM) [%]	% Antagonist Activity (168 GPCRs [1]; C5L2, 1 uM) [%]	% Agonist Activity (168 GPCRs [1]; C5L2, 10 uM) [%]	% Antagonist Activity (168 GPCRs [1]; C5L2, 10 uM) [%]	% Agonist Activity (168 GPCRs [2]; HRH3, 1 uM) [%]	% Antagonist Activity (168 GPCRs [2]; HRH3, 1 uM) [%]	% Agonist Activity (168 GPCRs [2]; HRH3, 10 uM) [%]	% Antagonist Activity (168 GPCRs [2]; HRH3, 10 uM) [%]	% Agonist Activity (168 GPCRs [3]; CHRM2, 1 uM) [%]	% Antagonist Activity (168 GPCRs [3]; CHRM2, 1 uM) [%]	% Agonist Activity (168 GPCRs [3]; CHRM2, 10 uM) [%]	% Antagonist Activity (168 GPCRs [3]; CHRM2, 10 uM) [%]	% Agonist Activity (168 GPCRs [4]; 1 uM) [%]	% Antagonist Activity (168 GPCRs [4]; 1 uM) [%]	% Agonist Activity (168 GPCRs [4]; 10 uM) [%]	% Antagonist Activity (168 GPCRs [4]; 10 uM) [%]	% Agonist Activity (168 GPCRs [5]; GALR1, 1 uM) [%]	% Antagonist Activity (168 GPCRs [5]; GALR1, 1 uM) [%]	% Agonist Activity (168 GPCRs [5]; GALR1, 10 uM) [%]	% Antagonist Activity (168 GPCRs [5]; GALR1, 10 uM) [%]	other results
CNC(C)C(=O)c1ccc2c(c1)OCO2 (stereo not shown) [methylone]	8.4	10	12.9	1.4	-3.4	9.5	-3.7	5.8	-0.2	-18.5	0.2	-7.4	0.1	-4.3	-0.3	-3.3	0.8	7.1	0.6	6.8	% Agonist Activity (168 GPCRs [6]; 1 uM): -2.3%; % Antagonist Activity (168 GPCRs [6]; 1 uM): -16%; % Agonist Activity (168 GPCRs [6]; 10 uM): -3%; % Antagonist Activity (168 GPCRs [6]; 10 uM): -7.7%; % Agonist Activity (168 GPCRs [7]; Conc 1 uM): -2.1%; % Antagonist Activity (168 GPCRs [7]; Conc 1 uM): 5.4%; % Agonist Activity (168 GPCRs [7]; Conc 10 uM): -2.7%; % Antagonist Activity (168 GPCRs [7]; Conc 10 uM): 1.8%; % Agonist Activity (168 GPCRs [8]; CXCR3, 1 uM): -0.2%; % Antagonist Activity (168 GPCRs [8]; CXCR3, 1 uM): 4.5%; % Agonist Activity (168 GPCRs [8]; CXCR3, 10 uM): 1.6%; % Antagonist Activity (168 GPCRs [8]; CXCR3, 10 uM): -3.9%
CNC(C)Cc1ccc2c(c1)OCO2 (stereo not shown) [MDMA, 3,4-Methylenedioxy methamphetamine, reference compound]	7.7	-5.5	3.3	-4	-3.1	6.2	-2.6	22.6	0.9	-1	1.4	10.5	-0.1	-2.2	0.4	0.7	0.7	-0.2	0.6	-5.1	% Agonist Activity (168 GPCRs [6]; 1 uM): -1%; % Antagonist Activity (168 GPCRs [6]; 1 uM): -1.7%; % Agonist Activity (168 GPCRs [6]; 10 uM): -0.9%; % Antagonist Activity (168 GPCRs [6]; 10 uM): -7.4%; % Agonist Activity (168 GPCRs [7]; Conc 1 uM): 6.6%; % Antagonist Activity (168 GPCRs [7]; Conc 1 uM): 11.5%; % Agonist Activity (168 GPCRs [7]; Conc 10 uM): 7.8%; % Antagonist Activity (168 GPCRs [7]; Conc 10 uM): 9.6%; % Agonist Activity (168 GPCRs [8]; CXCR3, 1 uM): -3.7%; % Antagonist Activity (168 GPCRs [8]; CXCR3, 1 uM): 11.3%; % Agonist Activity (168 GPCRs [8]; CXCR3, 10 uM): -4.7%; % Antagonist Activity (168 GPCRs [8]; CXCR3, 10 uM): 17.9%
